Test results as given in patent US10898583B2, “Harnessing quantum dots to study, visualize, and promote immune tolerance” (University of Maryland, College Park, priority 2016, dated 2021).
Where no end group is shown, it is not given here.

Tests used:
[1] = system: transgenic 2D2 CD4+ T cells; experiment: 2D2 T cell proliferation (proliferation dye dilution) in DC co-culture; type: cell-based, mouse; conditions: DCs treated with CpG; 17 or 52 peptides per QD; 72 hours
Experimental: Stained cells were analyzed by flow cytometry.

[2] = system: experimental autoimmune encephalomyelitis (EAE); experiment: EAE induction, MOG-QD treatment and monitoring; type: in vivo, C57BL/6 mice; conditions: single s.c. injection day 2, through day 21
Experimental: C57BL/6 mice (female, 10-12 weeks) were induced with EAE following a defined protocol from Hooke Labs. Briefly, mice were injected s.c. with an emulsion of MOG and complete Freund's adjuvant (CFA) at the upper and lower back on day 0. Pertussis toxin was also administered intraperitoneally 2 and 24 hours after MOG/CFA injection. Beginning at day 7, mice were weighed to detect changes from day 0 body weight (a symptom of disease) and scored for disease severity with respect to paralysis. A standard clinical scoring rubric was used: 0—no symptoms, 1—limp tail, 2—weakness of hind legs, 3—hind limb paralysis, 4—hind limb paralysis and partial front limb paralysis, 5—moribund.^[6, 7, 15]
Mice induced with EAE were randomly divided into groups of 8-10 mice each. A control group was left untreated in each experiment. In one experiment, additional groups were treated by s.c. injection at the tailbase with 0.2 nanomoles QDs, 70 μg MOG, 70 μg CTRL peptide on 0.2 nanomoles QDs (100:1), or 70 μg MOG peptide on 0.2 nanomoles QDs (100:1). Similar experiments contained two treatment groups: 14.3 μg MOG on 0.4 nanomoles QDs (17:1) or 73 μg MOG on 0.2 nanomoles QDs (52:1). The final experiment design contained three treatment groups: 70 μg MOG on 0.5 nanomoles QDs (25:1), 70 μg MOG on 0.4 nanomoles QDs (52:1), or 70 μg MOG on 0.3 nanomoles QDs (65:1).

With “HHHHHSAAAAAGISQAVHAAHAEINEAGR (not fully specified) [free CTRL peptide]” the “2D2 T cell proliferation” value [1] was “neither CTRL-QDs nor free CTRL peptide caused proliferation”.
With “HHHHHSAAAAAGMEVGWYRSPFSRVVHLYRNGK [free MOG]” the “2D2 T cell proliferation” value [1] was “equivalent”, the “disease progression (clinical score)” value ([2]; 100:1, 70 μg peptide on 0.2 nanomoles QDs or component controls) was “none of the groups except MOG-QDs caused significant differences in clinical scores” and the disease incidence ([2]; 100:1 or component controls) was “no differences in disease incidence”.
